Converted amounts (≈) assume the structure as drawn.
Assays:
[1] = system: HCV replicon-containing MH-14 cells; conditions: cited from earlier work; for HCV RNA accumulation was inhibited: Northern blot and quantitative RT-PCR
CD4+ PBMCs = experiment: Mixed lymphocyte reaction, proliferative response of CD4+ PBMCs; format: cell-based; conditions: for immunosuppressive activity (interpretation of Table 2): mixed lymphocyte reaction, 1 μg/ml; for % Stimulation (relative): cyclosporin 1 μg/ml, five days, [3H]-thymidine incorporation
Description: In this assay, cyclosporins were dissolved in ethanol (10 mg/ml). Freshly isolated CD4^+ PBMCs from two healthy donors were mixed subsequent to inactivation by irradiation of one of the populations (stimulator cells; S). […] R) was determined by [^3H]-thymidine incorporation. The assay was conducted reciprocally with the two cell populations, each being inactivated and stimulated in turn. Stimulation (%) of responder cells was calculated by the formula: […] Sample refers to a mixture of stimulator and responder cells. Background represents a control in which only stimulator cells are mixed.

[2] = Initial phase I clinical studies, safety of oral doses; format: in vivo
Description: Initial phase I clinical studies were carried out to assess the safety of oral doses of [D-MeAla]^3-[EtVal]^4-CsA, and to determine the pharmacokinetic profile and safety profile of the drug substance. […] These side effects were not dose-related.

[3] = molecular target: T1, human recombinant cyclophilin A (Homo sapiens, UniProt P62937); experiment: PPIase activity of cyclophilin A, tight binding inhibitor analysis; format: biochemical; conditions: for k: rate constant for the rate limiting reaction; for Et: total enzyme concentration from tight binding fit
T1 construct: purchased Sigma
T1 sequence (P62937 whole entry): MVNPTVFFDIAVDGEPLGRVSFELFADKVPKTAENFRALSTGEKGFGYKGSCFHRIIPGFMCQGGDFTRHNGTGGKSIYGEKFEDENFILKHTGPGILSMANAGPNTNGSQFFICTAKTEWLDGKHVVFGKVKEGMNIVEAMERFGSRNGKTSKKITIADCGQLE
Description: Commercial human recombinant cyclophilin A (Sigma) was used in the assays. PPlase activity of cyclophilins was determined using a chymotrypsin-coupled spectrophotometric assay according to Garcia-Echverria et al. (BBRC, 191, (1993), 70-75). This method is based on the high trans selectivity of chymotrypsin for peptides of the type N-succinyl-ala-ala-pro-phe-p-nitroanilide. The peptides cleavage liberated the para-nitroaniline moiety that could be detected and quantitated at 390 nm. The hydrolysis of the cis form was limited by the rate of cis-trans isomerisation carried out by cyclophilin A. The peptide was made up in a solution of […] LiCl in 2,2,2-trifluoroethanol at 470 mM to enhance the cis conformer peptides population. The assay was performed on the split beam spectrophotometer and the water bath was set at 5° C. Cyclophilin A (7500 pmol/mg total enzyme concentration; Sigma) were dissolved at 20 nM in a buffer (35 mM HEPES and 0.26 mg/ml chymotrypsin (specific activity 50 units/mg), pH 7.8 with KOH) and were incubated for 6 minutes at room temperature followed by 54 minutes in the water bath. […] Then 3.5 ml of the incubated cyclophilin was added to the sample cuvette. […] Peptide was added at 25 μM to initiate the reaction and the change in absorbance was monitored at 10 data points per second. As a control, rates were also determined for a parallel reaction that lacked cyclophilin. These blank rates of peptide hydrolysis (i.e. in the absence of cyclophilin) were subtracted from rates in the presence of cyclophilin A.
The initial rates obtained from the PPlase assays were analysed by first order regression analysis by using first order transformation of the traces of the time course of the change in the absorbance at 390 nm. Total enzyme concentration (Et), the inhibitor dissociation constant (Ki) and the rate constant for the rate limiting reaction was calculated with the software FigSyS (2003, Biosoft) by fitting the data obtained from the regression analysis in the tight binding inhibitor multiprotein equation.
Once Et, Ki and k were calculated by the computer for a given set of data, a graphic representation of the data was plotted and the line fitted to the points assuming tight inhibitor binding to a single protein, defined by the following equations: v=K*Et*P−K(B−sqrt(B*B−4*C))/2 where B=Et*P+I+Ki and C=Et*P*I.

[4] = system: HCV replicon in Huh-9-13 cells; experiment: HCV replicon clearance and rebound in Huh-9-13 cells; format: cell-based, hepatitis C virus (HCV); conditions: after 7 consecutive passages at 0.5 or 1 μg/ml; G418 1000 μg/ml for 2 passages (FIG. 3)
Description: Assays used Huh-9-13 cells, human hepatoma cells (Huh-7) (Lohmann et al., Science 285(5424), (1999), 110-113) Cells were grown in the usual complete medium DMEM without G418 pressure.
RT-PCR were performed on extracts of viral RNA of samples taken at different passage points. The forward and reverse primers used were 5′-[sequence]-3′ and 5′-[sequence]-3′, respectively. The fluorogenic probe was 5′-[sequence]-3′. As an internal control, a plasmid containing part of the neomycin phosphotransferase gene sequence was used. Results were analysed and expressed as a quantity of replicon RNA (ng) per 1′000 cells and used to draft a graph.

cyclophilin = molecular target: T2, cyclophilin (Homo sapiens, UniProt P62937); experiment: Peptidyl-prolyl cis-trans isomerase (PPIase) activity of cyclophilin, chymotrypsin-coupled Suc-AAPF-pNA assay; format: biochemical; conditions: compared with substitution in position 4 only
T2 construct: purchased Sigma
T2 sequence (P62937 whole entry): as above
Description: Peptidyl-prolyl cis-trans isomerase (PPlase) activity of cyclophilins was determined using a procedure adapted from Kofron et al. (see Biochemistry 30, 6127-6134 (1991); J. Am. Chem. Soc. 114, 2670-2675 (1992)). N-succinylated Ala-Ala-Pro-Phe-para nitro-aniline (Suc-AAPF-pNA, Bachem, Bubendorf, Switzerland) was used as the substrate. The assay was based on the preferential chymotrypsin cleavage of the trans isoform of the Phe-pNA bond in the tetrapeptide Ala-Ala-Pro-Phe-pNA. This cleavage liberates the para-nitroaniline moiety that can be detected and quantitated at 390 nm (ε=11,814 M^−1cm^−1). […] Cis-trans isomerization is catalysed by cyclophilin (PPlase, EC 5.2.1.8). […] Subsequent to the addition of 3.75 mg of chymotrypsin (70 μl of a solution of chymotrypsin in 10 mM HCl), the reaction was initiated by addition of 10 μl of a 3.2 mM solution of Suc-AAPF-pNA in 0.5 M LiCl/trifluoroethanol. The reaction was monitored for 3 min, and an initial rate constant was determined from the data obtained. As a control, an initial rate constant was also determined for a parallel reaction that lacked cyclophilin.

[5] = system: Jc1-Luc recombinant virus (HCV strains J6/JFH1) in Huh-7-Lunet and Huh-7.5 cells; experiment: Luciferase assay in hepatoma cells infected with Jc1-Luc recombinant HCV; format: cell-based, hepatitis C virus (HCV); conditions: Huh-7-Lunet and Huh-7.5 cells infected with Jc1-Luc; for antiviral activity: 72 hours (FIGS. 1 and 2)
From the text: The method used hepatoma cells that had been infected with an infectious full length cheieric HCV construct or the same virus that was modified to carry a luciferase […] gene.
Infectious HCV viruses of full-length chimeric genome between HCV strains J6 and JFH1 (Jc1) were used to inoculate the hepatoma cells of the assays. The construct of Jc1 virus was also modified to obtain a bicistronic genome carrying a luciferase reporter gene (Jc1-Luc). Twenty-four and ninety-six hours after the transfection of RNA transcripts of the genomes by electroporation of Huh-7.5 cells, cell culture supernatant was collected. Supernatants were filtered ([…]) and cell culture infectious dose 50 (CCID50) per ml were determined by the limiting dilution assays according to Lindenbach et al. (Science, 309, (2005), 623-626). The CCID50 were 1.3×105 for Jc1 and 4.2×103 for Jc1-Luc.
Assays used either Huh-7-Lunet or Huh-7.5 cells (Lohmann et al., Science 285(5424), (1999), 110-113). Cells were grown in Dulbecco's modified Eagle's Medium (DMEM; Gibco) supplemented with 10% heat-inactivated fetal bovine serum (FCS) (Integro), 1× non-essential amino acids (Gibco), 100 IU/ml penicillin (Gibco), 100 μg/ml streptomycin (Gibco) or 25 μg/ml hygromycin (Gibco) for Huh-mono cells at 37° C. and 5% CO2. For antiviral (replication) assays, Huh-7-Lunet and Huh-7.5 cells were seeded at a density of 2×104 or 4×10^4 cells per well of a 12-well plate. Twenty four hours later, the medium was replaced by 0.5 ml of the Jc1-Luc virus stock (12-well plates) or 0.25 ml of the Jc1 virus stock (12-well plates).
The inhibition of viral replication were estimated by luciferase assay. To carry out luciferase assay, cells were harvested, washed with PBS and lysed in luciferase lysis buffer (1% Triton X-100, 25 mM glycylglycine, 15 mM MgSO4, 4 mM EGTA, and 1 mM DTT). Firefly luciferase activity was measured according to Krieger et al. (J Virol, 75(10), (2001), 4614-4624). […] Finally, luminescence was measured by using a Lumat LB9507 luminometer (Berthold) for 20 samples.

[6] = system: HCV replicon (genotype 1 b) in Huh 5-2 cells
Description: (§1) Assays used Huh 5-2 cells that contained a bicistronic RNA encoding a firefly luciferase-ubiquitin-neomycin phosphotransferase fusion protein and HCV proteins NS3-5. The viral sequences originated from an HCV virus of genotype 1 b. Cells were cultured in RPMI 1640 medium (Gibco) supplemented with 10% fetal calf serum, 2 mM glutamine (Life Technologies), 1× non-essential amino acids (Life Technologies), 100 u/ml penicillin, 100 μg/ml streptomycin and 250 μg/ml G418 (Geneticin, Life Technologies) at 37° C. and 5% CO2. For antiviral (replication) assays, cells were seeded at a density of 7000 cells/well in 96-well View Plates™ (Packard) in the same medium except for G418. After a 24-h incubation, medium was removed, serial dilutions of test compounds in medium were added, and cells were incubated for an additional 72 h.
Antiviral effects were estimated either by luciferase assay or quantitative RT-PCR. To carry out luciferase assays, medium was removed, and cells were washed with PBS. Subsequent to lysis in 50 μl of Glo-lysis buffer (Promega) for 15 min, 50 μl of Stead-Glo Luciferase Assay Reagent (Promega) were added to cell lysates. Luciferase activity was measured using a luminometer, and the signal from each test well was expressed as a percentage of the signal measured in wells of cultures not exposed to a test compound. […]

[7] = system: HCV replicon (genotype 1 b) in Huh 5-2 cells; conditions: EC50 derived from RNA titers by quantitative RT-PCR; asterisk = lower of two independently determined values
Description: as §1
Results from these experiments permitted calculation of EC50 for the different cyclosporins, which is the effective concentration required to inhibit HCV replicon replication by 50%, and of CC50, which is the concentration required that inhibits the proliferation of exponentially growing cells by 50%, and a selectivity index SI, which is the ratio between CC50 and EC50.

C/C=C/C[C@@H](C)C(=O)[C@H]1C(=O)N[C@@H](C(C)C)C(=O)N(C)CC(=O)N(C)[C@@H](CC(C)C)C(=O)N[C@@H](C(C)C)C(=O)N(C)[C@@H](CC(C)C)C(=O)N[C@@H](C)C(=O)N[C@H](C)C(=O)N(C)[C@@H](CC(C)C)C(=O)N(C)[C@@H](CC(C)C)C(=O)N(C)[C@@H](C(C)C)C(=O)N1C [PSC 833]
HCV RNA accumulation was inhibited ([1]; MH-14 cells): not

C/C=C/C[C@@H](C)[C@@H](O)[C@H]1C(=O)N[C@@H](CC)C(=O)N(C)[C@H](C)C(=O)N(CC)[C@@H](C(C)C)C(=O)N[C@@H](C(C)C)C(=O)N(C)[C@@H](CC(C)C)C(=O)N[C@@H](C)C(=O)N[C@H](C)C(=O)N(C)[C@@H](CC(C)C)C(=O)N(C)[C@@H](CC(C)C)C(=O)N(C)[C@@H](C(C)C)C(=O)N1C [[D-MeAla]^3-[EtVal]^4-CsA]
immunosuppressive activity (interpretation of Table 2) (CD4+ PBMCs): essentially devoid of immunosuppressive activity | tolerability of oral doses ([2]; doses of 50 to 1600 mg in a micro-emulsion in water): well tolerated | side effects ([2]; oral doses 50 to 1600 mg, not dose-related): Mild and short-lived side effects were observed including nausea, vomiting, abdominal pain, mild headaches | higher affinity for cyclophilin compared to [MeIle]4-CsA ([3]; cyclophilin A): ~6 fold | k [3]: 0.16 ± 0.0074 s − 1 | Et [3]: 7500 pmol/mg | outcome of cultures in the presence of G418 (rebound phase) [4]: the cultures died | further increase in cyclophilin binding activity by substitution in position 3 (cyclophilin): ≥ 2 fold | antiviral activity [5]: dose-dependent antiviral activity

C/C=C/C[C@@H](C)[C@@H](O)[C@H]1C(=O)N[C@@H](CC)C(=O)N(C)CC(=O)N(C)[C@@H]([C@@H](C)CC)C(=O)N[C@@H](C(C)C)C(=O)N(C)[C@@H](CC(C)C)C(=O)N[C@@H](C)C(=O)N[C@H](C)C(=O)N(C)[C@@H](CC(C)C)C(=O)N(C)[C@@H](CC(C)C)C(=O)N(C)[C@@H](C(C)C)C(=O)N1C [[MeIle]^4-CsA]
% Stimulation (relative) (CD4+ PBMCs; co-culture R1 × S2): 84% | % Stimulation (relative) (CD4+ PBMCs; co-culture R2 × S1): 75% | immunosuppressive activity (interpretation of Table 2) (CD4+ PBMCs): essentially devoid of immunosuppressive activity | EC50 +/− Std. Dev. ([6]; luciferase assay, 72 h): 0.22 µg/mL (≈ 0.183 µM) | Selectivity index ([6]; ratio between CC50 (MTT) and EC50 (luciferase)): 64 | effectiveness in reducing HCV RNA titer relative to CsA ([1]; MH-14 cells): about equally as effective as CsA | k [3]: 0.17 ± 0.0068 s − 1 | Et [3]: 7500 pmol/mg | SI values [7]: 73

Cyclosporin A [CsA]
reduction of HCV RNA titer ([1]; 7-day exposure, 1 μg/ml): about 200 fold | HCV RNA accumulation was inhibited ([1]; MH-14 cells): inhibited | k [3]: 0.17 ± 0.0069 s − 1 | Et [3]: 7500 pmol/mg | higher concentration needed for the same replication inhibiting effect as [D-MeAla]3-[EtVal]4-CsA [5]: 10 fold | antiviral activity [5]: dose-dependent antiviral activity

Source: patent USRE43371E1, “Use of selected cyclosporins for the treatment of hepatitis C infection” (priority 2004, dated 2012)
